Measurements taken from PubChem BioAssay (NCI).
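Values below derive from 48-hour exposures of cells grown in 96-well plates, with endpoints linearly interpolated between the two concentrations bracketing the appropriate inhibition level. TGI denotes the concentration required for complete inhibition of growth.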

Key:
Assay in all cases: DTP human tumour cell line panel, 48 h
CAKI-1 renal = tested on: CAKI-1 renal
MCF7 breast = tested on: MCF7 breast
OVCAR-3 ovarian = tested on: OVCAR-3 ovarian
HOP-62 NSCLC = tested on: HOP-62 NSCLC
SK-MEL-28 melanoma = tested on: SK-MEL-28 melanoma
SK-MEL-2 melanoma = tested on: SK-MEL-2 melanoma
M14 melanoma = tested on: M14 melanoma
DU-145 prostate = tested on: DU-145 prostate
SF-268 CNS = tested on: SF-268 CNS
SK-OV-3 ovarian = tested on: SK-OV-3 ovarian
MOLT-4 leukemia = tested on: MOLT-4 leukemia
MDA-MB-435 = tested on: MDA-MB-435
TK-10 renal = tested on: TK-10 renal
SF-295 CNS = tested on: SF-295 CNS
ACHN renal = tested on: ACHN renal
OVCAR-5 ovarian = tested on: OVCAR-5 ovarian
OVCAR-8 ovarian = tested on: OVCAR-8 ovarian
EKVX NSCLC = tested on: EKVX NSCLC
SF-539 CNS = tested on: SF-539 CNS
RPMI-8226 leukemia = tested on: RPMI-8226 leukemia
MDA-MB-231 breast = tested on: MDA-MB-231 breast
SNB-75 CNS = tested on: SNB-75 CNS
UACC-257 melanoma = tested on: UACC-257 melanoma
HT29 colon = tested on: HT29 colon
HL-60(TB) leukemia = tested on: HL-60(TB) leukemia
U251 CNS = tested on: U251 CNS
UACC-62 melanoma = tested on: UACC-62 melanoma
A498 renal = tested on: A498 renal
UO-31 renal = tested on: UO-31 renal
SR leukemia = tested on: SR leukemia
HCC-2998 colon = tested on: HCC-2998 colon
NCI-H522 lung = tested on: NCI-H522 lung
NCI-H460 lung = tested on: NCI-H460 lung
A549 NSCLC = tested on: A549 NSCLC
LOX IMVI melanoma = tested on: LOX IMVI melanoma
K-562 leukemia = tested on: K-562 leukemia
786-0 renal = tested on: 786-0 renal
NCI/ADR-RES ovarian = tested on: NCI/ADR-RES ovarian
SW-620 colon = tested on: SW-620 colon
BT-549 breast = tested on: BT-549 breast
T-47D breast = tested on: T-47D breast
OVCAR-4 ovarian = tested on: OVCAR-4 ovarian
COLO 205 colon = tested on: COLO 205 colon
SN12C renal = tested on: SN12C renal
NCI-H23 lung = tested on: NCI-H23 lung
RXF 393 renal = tested on: RXF 393 renal
HCT-15 colon = tested on: HCT-15 colon
KM12 colon = tested on: KM12 colon
PC-3 prostate = tested on: PC-3 prostate
IGROV1 ovarian = tested on: IGROV1 ovarian
CCRF-CEM leukemia = tested on: CCRF-CEM leukemia
HCT-116 colon = tested on: HCT-116 colon
SK-MEL-5 melanoma = tested on: SK-MEL-5 melanoma
NCI-H226 lung = tested on: NCI-H226 lung

Measured: TGI

O=c1c2[nH]cnc2n(-c2ccccc2)c(=S)n1-c1ccccc1
> 100 µM: all assays above
